Test results: patent US10494380B2, “Nitrogen-containing tricyclic derivatives having HIV replication inhibitory activity” (priority 2015, dated 2019)
Read-outs that look alike come from different tables or passages of the source.

Key:
[1] = biological target: CYP3A4 (Homo sapiens (Human), UniProt P08684); assay: CYP3A4 (MDZ) MBI test (Test Example 6); conditions: pooled human liver microsomes, midazolam 1-hydroxylation, preincubation 0 or 30 min
[2] = system: sheep red blood cells (RBC); assay: Photohemolysis test (Test Example 13); type: cell-based; conditions: 0.0008 to 0.1 w/v %, 10 J/cm2 UV-irradiation (290-400 nm)
Excerpt: Aliquots of sheep red blood cells (RBC) suspension prepared with medium to make a 2.5 v/v % concentration are dispensed into microplates. The compound of the present invention was desolved with a vehicle to make target concentrations and then these solutions were immediately added (in concentrations of 0.0008 to 0.1 w/v %) into the microplates. The mixtures on the microplates were exposed to 10 J/cm2 of UV-irradiation (UV-A and UV-B, 290-400 nm) with a GL20SE lamp (SANKYO DENKI) and a FL20S-BLB lamp (Panasonic). After the UV-irradiation, the mixtures were centrifuged. Aliquots of supernatant were transferred to a microplate. Absorbance of the supernatants was measured at 540 nm and 630 nm for judgement of the potential of phototoxicity. In the study, two endpoints were evaluated in biomembrane impairment (% of photohemolysis index; PI) and hyperoxidation of lipid membrane (methemoglobin formation; met-Hb) with the absorbance at 540 nm and 630 nm, respectively. PI and met-Hb were assessed based on the negative criteria (−), PI<10% and changes in absorbance at 630 nm<0.05, respectively. All else was judged as positive (+).

[3] = biological target: CYP2C9 (Homo sapiens (Human), UniProt P11712); assay: CYP inhibition assay, tolbutamide methyl-hydroxylation (Test Example 4); type: in vitro ADME; conditions: pooled human hepatic microsome, 100 μmol/L tolbutamide, 15 minutes, 37° C.
CYP2C9, sequence (P11712 whole entry): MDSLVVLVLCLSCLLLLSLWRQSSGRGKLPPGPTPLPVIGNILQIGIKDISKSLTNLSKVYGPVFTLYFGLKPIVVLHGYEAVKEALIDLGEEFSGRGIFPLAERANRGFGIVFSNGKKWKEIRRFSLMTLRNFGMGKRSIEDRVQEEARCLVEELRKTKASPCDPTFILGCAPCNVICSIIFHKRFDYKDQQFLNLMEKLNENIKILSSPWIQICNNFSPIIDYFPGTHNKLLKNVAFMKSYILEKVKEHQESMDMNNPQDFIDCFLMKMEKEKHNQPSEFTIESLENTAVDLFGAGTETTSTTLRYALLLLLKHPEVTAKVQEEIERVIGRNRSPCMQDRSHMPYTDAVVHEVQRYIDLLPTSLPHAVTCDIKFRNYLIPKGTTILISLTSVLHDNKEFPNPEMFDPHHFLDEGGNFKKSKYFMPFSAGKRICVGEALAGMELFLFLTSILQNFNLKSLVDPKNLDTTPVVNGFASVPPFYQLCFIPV
Method: Using commercially available pooled human hepatic microsome, and employing, as markers, 7-ethoxyresorufin O-deethylation (CYP1A2), tolbutamide methyl-hydroxylation (CYP2C9), mephenytoin 4′-hydroxylation (CYP2C19), dextromethorphan O-demethylation (CYP2D6), and terfenadine hydroxylation (CYP3A4) as typical substrate metabolism reactions of human main five CYP enzyme forms (CYP1A2, 2C9, 2C19, 2D6, 3A4) an inhibitory degree of each metabolite production amount by a test compound was assessed.
The reaction conditions were as follows: substrate, 0.5 μmol/L ethoxyresorufin (CYP1A2), 100 μmol/L tolbutamide (CYP2C9), 50 μmol/L S-mephenytoin (CYP2C19), 5 μmol/L dextromethorphan (CYP2D6), 1 μmol/L terfenedine (CYP3A4); reaction time, 15 minutes; reaction temperature, 37° C.; enzyme, pooled human hepatic microsome 0.2 mg protein/mL; test drug concentration, 1, 5, 10, 20 μmol/L (four points).
Each five kinds of substrates, human hepatic microsome, and a test drug in 50 mmol/L Hepes buffer as a reaction solution was added to a 96-well plate as the composition ad described above, NADPH, as a coenzyme was added to initiate metabolism reactions as markers and, after the incubation at 37° C. for 15 minutes, a methanol/acetonitrile=1/1 (V/V) solution was added to stop the reaction. After the centrifugation at 3000 rpm for 15 minutes, resorufin (CYP1A2 metabolite) in the supernatant was quantified by a fluorescent multilabel counter and tolbutamide hydroxide (CYP2C9 metabolite), mephenytoin 4′ hydroxide (CYP2C19 metabolite), dextrorphan (CYP2D6 metabolite), and terfenadine alcohol (CYP3A4 metabolite) were quantified by LC/MS/MS.

[4] = system: T125A mutant virus (HIV-1 NL-432 recombinant molecular clone, IN gene); assay: HIV replication inhibition assay against integrase 124/125 mutant virus (Test Example 2); type: cell-based
Procedure, shortened: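 MT-4 cells (2.5×10^4 per well) infected with 60 pfu of 293T-derived HIV-1 NL-432 clone carrying integrase 124/125 point mutations, in presence of compound, cultured 4 days at 37 °C. Viability by MTT formazan at 560/690 nm; EC50 = concentration inhibiting 50% of virus-induced cytotoxicity.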

[5] = system: HIV; type: cell-based; conditions: EC50 in the presence of human serum (25%) versus without human serum, MT-4 cells
Procedure, shortened: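 Compound is preincubated 1 h at room temperature with human serum, or with medium alone as the serum-free control. MT-4 cells infected with HIV (1 h, 37° C) are added and cultured 4 days. EC50 is determined with and without serum; their ratio gives the potency shift.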

[6] = system: HIV (HTLV-IIIB strain); assay: HIV replication inhibition assay (Test Example 1; MT-4 cells, MTT); type: cell-based; conditions: HIV (HTLV-IIIB strain), MT-4 cells, MTT, four days; for EC50: read-out: EC50; for EC90: read-out: EC90
Procedure, shortened: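 MT-4 cells (2.5×10^4/well) were infected with HIV HTLV-IIIB (60 pfu) in the presence of compound and cultured 4 days at 37 °C. Cell viability was read by MTT reduction (OD 560/690 nm). EC50 and EC90 are the concentrations inhibiting virus-induced cytotoxicity by 50% and 90%.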

[7] = Human immunodeficiency virus 1, MT4, read-out: EC50 against T125A mutant virus, T125A mutant virus (HIV-1 NL-432 IN gene), MT-4 cells, MTT
[8] = Human immunodeficiency virus 1, MT4, 96 h
[9] = T125A mutant virus (HIV-1 NL-432 IN gene), MT-4 cells, MTT, read-out: EC50 against T125A mutant virus

CYP3A4, sequence (P08684 whole entry): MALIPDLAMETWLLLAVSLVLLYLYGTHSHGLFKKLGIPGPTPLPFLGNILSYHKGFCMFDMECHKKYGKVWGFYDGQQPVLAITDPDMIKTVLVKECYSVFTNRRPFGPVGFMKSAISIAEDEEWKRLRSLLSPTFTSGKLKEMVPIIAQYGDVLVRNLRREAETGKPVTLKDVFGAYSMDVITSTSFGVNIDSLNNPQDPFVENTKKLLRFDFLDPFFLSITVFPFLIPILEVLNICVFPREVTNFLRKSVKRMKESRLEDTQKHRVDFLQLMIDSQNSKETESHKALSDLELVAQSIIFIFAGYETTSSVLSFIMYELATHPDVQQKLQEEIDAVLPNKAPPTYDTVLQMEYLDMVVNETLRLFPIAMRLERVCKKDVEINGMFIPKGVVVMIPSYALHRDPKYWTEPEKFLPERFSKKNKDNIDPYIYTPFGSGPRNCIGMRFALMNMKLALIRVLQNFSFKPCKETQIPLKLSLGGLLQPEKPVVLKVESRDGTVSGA

Row | Structure (SMILES) | CYP3A4 (MDZ) MBI, shifted IC [1] | Photohemolysis test, potential of phototoxicity (PI and met-Hb) [2] | IC50 [3] [nM] | EC50 [4, 7] [nM] | Potency shift value [5] | EC50 [6, 8] [nM] | EC90 [6, 8] [nM] | EC50 [4, 9] [nM] | EC50 [6] [nM] | EC90 [6] [nM]
1 | COc1cnc(N2CCn3c(C)cc4c(-c5ccc(C)cc5)c([C@H](OC(C)(C)C)C(=O)O)c(C)c2c43)nc1 [Compound I-189] | (−) (When a shifted IC was 1.0 or less, this was defined as negative) | (−) (negative criteria (−), PI<10% and changes in absorbance at 630 nm<0.05, respectively) | > 20000 | 3.1 | 22 | 1.6 | 3.2 |  |  | 
2 | Cc1ccc(-c2c([C@H](OC(C)(C)C)C(=O)O)c(C)c3c4c2cc(C)n4CCN3c2ncc(CCN3CCOCC3)cn2)cc1 [Compound I-309] | (−) (When a shifted IC was 1.0 or less, this was defined as negative) | (−) (negative criteria (−), PI<10% and changes in absorbance at 630 nm<0.05, respectively) | > 20000 |  | 13 |  |  | 4.7 | 2.2 | 1.5
3 | Cc1ccc(-c2c([C@H](OC(C)(C)C)C(=O)O)c(C)c3c4c2cc(C)n4CCN3c2ncc(CCN3CCCCC3)cn2)cc1 [Compound I-305] | (−) (When a shifted IC was 1.0 or less, this was defined as negative) | (−) (negative criteria (−), PI<10% and changes in absorbance at 630 nm<0.05, respectively) | > 20000 |  | 3.6 |  |  | 12 | 3.7 | 4.9
4 | [2H]C([2H])([2H])Oc1cnc(N2CCn3c(C)cc4c(-c5ccc(Cl)cc5)c([C@H](OC(C)(C)C)C(=O)O)c(C)c2c43)nc1 [Compound I-260] | (−) (When a shifted IC was 1.0 or less, this was defined as negative) | (−) (negative criteria (−), PI<10% and changes in absorbance at 630 nm<0.05, respectively) | > 20000 | 3.6 | 15 | 1.1 | 1.5 |  |  | 
5 | COCC[C@H]1Cn2c(C)cc3c(-c4ccc(Cl)cc4)c([C@H](OC(C)(C)C)C(=O)O)c(C)c(c32)N1S(C)(=O)=O [Compound I-043] | (−) (When a shifted IC was 1.0 or less, this was defined as negative) | (−) (negative criteria (−), PI<10% and changes in absorbance at 630 nm<0.05, respectively) | > 20000 |  | 3.2 |  |  | 11 | 1.4 | 2.3
